Results from patent US20220213070A1, “COMPOUNDS INHIBITING TDG ACTIVITY” (EPITAS BIOSCIENCES (SHANGHAI) CO., LTD., priority 2019, published 2022).

Assays:
[1] = target: T1, TDG (Homo sapiens, UniProt Q13569); experiment: Inhibition of TDG mismatch repair activity (fluorescent G·U double-stranded DNA probe T1-T2); format: biochemical; conditions: TDG 100 nM/L, preincubated with compound 37° C. 30 minutes; probe 30 nM; read-out: Inhibitory activity on TDG mismatch repair IC50
Description: 14.1 Experimental Determination of Compound's Inhibitory Rate on TDG Mismatch Repair Activity
(1) A double-stranded DNA probe T1-T2 containing uracil bases was synthesized. The nucleotide sequence of the T1 chain was: 5′-FAM-TAAUGTGAATGGAGCTGAAAT-biotin-3′; The nucleotide sequence of the T2 chain was 5′-ATTTCAGCTCCATTCACGTTA-3′. Using PCR annealing program, the T1 strand and T2 strand were complementary to form a double-stranded DNA probe T1-T2.
(2) The reaction system and steps for each well of a 96-well plate were as follows: a. TDG (100 nM/L) was mixed with different concentrations of compounds, and the mixture was incubated at 37° C. for 30 minutes. The composition of the reaction buffer was: 20 mM HEPES pH7.5, 100 mM NaCl, 0.2 mM EDTA, 2.5 mM MgCl2; b. The double-stranded DNA probe T1-T2 was added to the mixture to obtain a final volume of 100 μL, with a concentration of 30 nM, and the mixture was incubated at 25° C. for 30 min; c. 1 μL of streptavidin magnetic beads were added to the reaction solution and fully bound the biotin-labeled DNA for 1 hour; d. NaOH was added to the reaction solution to a final concentration of 200 mM, and the mixture was incubated at room temperature for 30 minutes; e. Under the action of a magnetic stand the streptavidin magnetic beads were adsorbed to the tube wall, the supernatant was transferred to a new 96-well plate, and placed in a Tecan microplate reader for fluorescence measurement. The parameter settings were: excitation wavelength 485 nm; emission wavelength 520 nm. A linear curve between fluorescence intensity and TDG concentration was constructed, R^2=0.9968, and the linear range was 0-50 nM/L;
According to the biological method described in this example, the selected compounds of the present invention were analyzed, and the results are shown in Table 1. Among them, “++” in Table 1 refers to the inhibitory activity for TDG mismatch repair with IC50≤5 μM; “+” refers to the inhibitory activity for TDG mismatch repair with IC50>5 μM.

[2] = tested on: Lung cancer cell line Calu-1; experiment: Inhibition of the growth of Calu-1 cells (CellTiter-Glo, 72 hours); format: cell-based; conditions: Homo sapiens, 72 hours of culturing, read-out: Inhibitory activity on alu-1 cell growth IC50
Protocol: 14.2 Experimental Determination of Compound's Inhibitory Rate on the Growth of Calu-1 Cells
Lung cancer cell line Calu-1 was cultured in 90% McCoy's 5A medium (BI, 01-075-1ACS)+10% fetal bovine serum (Gibco, 10270106), placed in a CO2 incubator (37° C., 5% CO2, 95% air) for culturing. Calu-1 cells were digested with trypsin (Gibco, 12604-021) and seeded in a 384-well plate at a density of 500 cells per well. The medium was 50 μL and it was cultured overnight at 37° C. in an incubator. On the next day, different concentrations of test compounds were added, and the final concentration of DMSO was 0.1%. After 72 hours of culturing, the cells were taken out for test. The cell culture medium from the 384-well plate to be tested was removed, and fresh culture medium premixed with CTG was immediately added: the ratio of the culture medium to CellTiter-Glo® 2.0 reagent (Promega, G9243) was 2:1, 30 ul was added to each well. The plate was shaken at room temperature for 20 minutes, and then a multi-function plate reader (TECAN, Infinite 200 Pro) was used according to the reagent instructions to determine the cell survival.
According to the biological method described in this example, the selected compounds of the present invention were analyzed, and the results are shown in Table 1. Among them, “++” in Table 1 refers to the inhibitory activity on the growth of calu-1 cells with IC50≤5 μM; “+” refers to the inhibitory activity on the growth of calu-1 cells with IC50>5 μM.

[3] = target: T1, TDG; experiment: TDG inhibitory activity of compounds in cells (caC-cmv-firefly luciferase reporter, HEK 293T TDG KO cells transfected with pCDNA4-TDG); format: cell-based; conditions: read-out: Inhibition rate on TDG activity
Protocol: Experimental Determination of TDG Inhibitory Activity of Compounds in Cells
The operation steps of this example are as follows:
(1) Preparation of Methylation Reporter Plasmid:
(a) SAM with a stock solution concentration of 32 mM was diluted with ultrapure water to 1600 μM;
(b) The reaction system was prepared according to the following ratio: 30 μl ultrapure water, 5 μl 10×NEBuffer 2, 5 μl diluted SAM, 1 μg pCpGL-CMV-firefly plasmid, 1 μl SssI methylase (4 U/μl); 50 μl in total, the reaction was carried out at 37° C. for 2 hours;
(c) The mixture was heated at 65° C. for 20 minutes. Then 0.2% SDS was added, the reaction was carried out at 80° C. for 10 min; and then 1 μl Proteinase K was added, the reaction was carried out at 50° C. for 1 h;
(d) The methylated plasmid was recovered with Dr. GenTLE® sedimentation aid (TAKARA).
(2) Preparation of 5fC/5caC pCpGL-CMV-Firefly Reporter Plasmid
(a) The following 10× reaction system was prepared:
(b) The reaction system was prepared according to the following ratio:
(c) The reaction was carried out at 37° C. for one hour;
(d) 24 μg Tet1 protein was added for the second time and the reaction was continued for one hour;
(e) SDS was added to a final concentration of 0.5%, 80° C., 10 minutes, then 1 μl Proteinase K was added, 55° C. overnight.
(f) The treated caC-cmv-firefly plasmid was recovered with Dr. GenTLE® sedimentation aid (TAKARA) and was quantified.
(3) Using the Luciferase Activity Assay Method to Detect the Inhibitory Rate of Small Molecule Compounds on Intracellular TDG Enzyme Activity
In a 96-well plate, the reaction system and operation flow of each well were as follows:
(a) 1 ng caC-cmv-firefly, Ing pCpGL-CMV-Relina and 150 ng pCDNA4-TDG or 150 ng pCDNA4-myc plasmid, were diluted to 75 ul Opti-MEM, mixed well and allowed to stand still for 5 minutes;
(b) 2 ul transfection reagent (Hieff Trans™ Liposomal transfection Reagent (0.5 ul/well, YEAEEN, Cat #40802)) was diluted in 100 ul Opti-MEM, mixed well and allowed to stand still for 5 minutes;
(c) 75 ul of (a) and (b) were mixed respectively, and allowed to stand still at room temperature for 20 minutes;
(d) HEK 293T TDG KO cells were digested with trypsin, the cells were collected and counted, and the suspension cell concentration was adjusted to 4×10^5/ml;
(e) 50 ul of the mixture (c) was added to each well, and at the same time 100 ul of the diluted cell suspension was added to the same well, and they were mixed well.
(f) After the cells adhering to the wall, different concentrations of small molecule compounds to be tested were added to each well.
(g) Incubation was performed in a 37° C. CO2 incubator for 72 hours. The supernatant was removed and the cells were quickly freezed at −80° C.
(h) Before detecting the luciferase activity, the cells to be tested were removed from −80° C. and allowed to stand still at room temperature for 30 minutes. Following the instructions of Dual-Glo® Luciferase Reagent (PROMEGA), the firefly fluorescence value and Renilla fluorescence value of each well were detected.
(i) The firefly fluorescence value was divided with the Renilla fluorescence value of each well; 96-well plate Z′ and experimental window was calculated by the ratio of transfected caC-cmv-firefly, pCpGL-CMV-Relina, pCDNA4-TDG plasmid mixture plus DMSO experimental group to transfected caC-cmv-firefly, pCpGL-CMV-Relina, pCDNA4-myc plasmid mixture plus DMSO experimental group, and the relative enzyme activity inhibition rate of each compound was calculated.
According to the biological method described in this example, the selected compounds of the present invention were analyzed, and the results are shown in Table 2. Among them, “+” in Table 2 refers to the compound's TDG inhibitory activity at a concentration of 10 μM≤25%; “++” refers to the compound's TDG inhibitory activity at a concentration of 10 μM>25%.

T1 sequence (Q13569 whole entry): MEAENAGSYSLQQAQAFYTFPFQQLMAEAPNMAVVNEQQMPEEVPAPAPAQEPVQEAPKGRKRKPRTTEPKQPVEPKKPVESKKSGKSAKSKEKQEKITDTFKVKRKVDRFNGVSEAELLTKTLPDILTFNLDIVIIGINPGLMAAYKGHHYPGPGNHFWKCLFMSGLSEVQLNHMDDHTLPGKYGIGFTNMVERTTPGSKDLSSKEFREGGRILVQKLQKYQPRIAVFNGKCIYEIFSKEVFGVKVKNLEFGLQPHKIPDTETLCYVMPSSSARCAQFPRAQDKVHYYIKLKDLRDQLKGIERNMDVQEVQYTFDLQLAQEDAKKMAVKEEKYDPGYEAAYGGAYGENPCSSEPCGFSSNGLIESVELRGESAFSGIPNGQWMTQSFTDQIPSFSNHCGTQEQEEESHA

Row | SMILES | IC50 [1] [µM] | IC50 [2] [µM] | inhibition at 10 µM [3] [%]
1 | c1ccc2c(c1)CN(CCCc1ccc3c(c1)OCCO3)C2 [Compound 29, 2-(3-(2,3-dihydrobenzo[b][1,4]dioxin-6-yl)propyl)isoindoline] | > 5 | > 5 | > 25
2 | O=C(CCN1CCN(c2ncccn2)CC1)c1ccc2c(c1)OCCO2 [Compound 19, 1-(2,3-dihydrobenzo[b][1,4]dioxin-6-yl)-3-(4-(pyrimidin-2-yl)piperazin-1-yl)propan-1-one] | > 5 | ≤ 5 | < 25
3 | O=C1CCN(CCC(=O)c2ccc3c(c2)OCCO3)C1 [Compound 17, 1-(3-(2,3-dihydrobenzo[b][1,4]dioxin-6-yl)-3-oxopropyl)pyrrolidin-3-one] | ≤ 5 | > 5 | < 25
4 | OC(CCN1Cc2ccccc2C1)c1ccc2c(c1)OCCO2 (centres unmarked) [Compound 10, 1-(2,3-dihydrobenzo[b][1,4]dioxin-6-yl)-3-(isoindolin-2-yl)propan-1-ol] | > 5 | > 5 | < 25
5 | O=C(CCN1Cc2ccc(-c3ccc(F)cc3)cc2C1)c1ccc2c(c1)OCCO2 [Compound 40, 1-(2,3-dihydrobenzo[b][1,4]dioxin-6-yl)-3-(5-(4-fluorophenyl)isoindolin-2-yl)propan-1-one] | > 5 | > 5 | < 25
6 | O=C(CCN1Cc2ccc([N+](=O)[O-])cc2C1)c1ccc2c(c1)OCCO2 [Compound 2, 1-(2,3-dihydrobenzo[b][1,4]dioxin-6-yl)-3-(5-nitroisoindo1-2-yl)propan-1-one] | ≤ 5 | ≤ 5 | < 25
7 | O=C(CCN1CCc2ccccc2C(O)(c2ccc(F)cc2)C1)c1ccc2c(c1)C(=O)CCO2 (centres unmarked) [Compound 54, 6-(3-(1-(4-fluorophenyl)-1-hydroxy-1,2,4,5-tetrahydro-3H-benzo[d]azepine-3-yl)propionyl)chroman-4-one] | ≤ 5 | ≤ 5 | < 25
8 | O=C(CCN1CCOc2ccccc21)c1ccc2c(c1)OCCO2 [Compound 15, 3-(2,3-dihydro-4H-benzo[b][1,4]oxazin-4-yl)-1-(2,3-dihydrobenzo[b][1,4]dioxin-6-yl)propan-1-one] | > 5 | > 5 | < 25
9 | O=C(CCN1CCC(c2ccc([N+](=O)[O-])cc2)C1)c1ccc2c(c1)OCCO2 (centres unmarked) [Compound 46, 1-(2,3-dihydrobenzo[b][1,4]dioxin-6-yl)-3-(3-(4-nitrophenyl)pyrrolidin-1-yl)propan-1-one] | ≤ 5 | ≤ 5 | < 25
10 | O=C(CCN1CCc2ccccc2C1)c1ccc2c(c1)OCCO2 [Compound 13, 1-(2,3-dihydrobenzo[b][1,4]dioxin-6-yl)-3-(3,4-dihydroisoquinoline-2(1H)-yl)propan-1-one] | ≤ 5 | ≤ 5 | < 25
11 | O=C(CCN1Cc2ccccc2C1)c1ccc2c(c1)OCO2 [Compound 35, 1-(benzo[d][1,3]dioxo1-5-yl)-3-(isoindolin-2-yl)propan-1-one] | ≤ 5 | ≤ 5 | < 25
12 | CC(C)(C)OC(=O)NCC1(O)CN(CCC(=O)c2ccc3c(c2)OCCO3)C1 [Compound 23, tert-butyl ((1-(3-(2,3-dihydrobenzo[b][1,4]dioxin-6-yl)-3-oxopropyl)-3-hydroxyazetidin-3-yl)methyl)carbamate] | > 5 | > 5 | < 25
13 | O=C(CCN1Cc2ccc(F)cc2C1)c1ccc2c(c1)OCCO2 [Compound 6, 1-(2,3-dihydrobenzo[b][1,4]dioxin-6-yl)-3-(5-fluoroiso-2-yl)propan-1-one] | ≤ 5 | > 5 | < 25
14 | CC(=O)c1ccc2c(c1)CN(CCC(=O)c1ccc3c(c1)OCCO3)C2 [Compound 7, 3-(5-acetylisoindolin-2-yl)-1-(2,3-dihydrobenzo[b][1,4]dioxin-6-yl)propan-1-one] | ≤ 5 | > 5 | < 25
15 | COc1ccc2c(c1)CN(CCC(=O)c1ccc3c(c1)OCCO3)C2 [Compound 5, 1-(2,3-dihydrobenzo[b][1,4]dioxin-6-yl)-3-(5-methoxyisoindolin-2-yl)propan-1-one] | ≤ 5 | ≤ 5 | < 25
16 | O=C(CCN1Cc2ccccc2C1)c1ccc(O)c(O)c1 [Compound 39, 1-(3,4-dihydroxyphenyl)-3-(isoindolin-2-yl)propan-1-one] | > 5 | > 5 | < 25
17 | Cc1ccc(C2CCN(CCC(=O)c3ccc4c(c3)OCCO4)C2)cc1 (centres unmarked) [Compound 48, 1-(2,3-dihydrobenzo[b][1,4]dioxin-6-yl)-3-(3-(p-tolyl)pyrrolidin-1-yl)propan-1-one] | ≤ 5 | ≤ 5 | –
